System: 885512-296-R-J2-PDC complex spheroid viability
Assay: Anticancer human tumor 885512-296-R-J2-PDC patient-derived breast carcinoma cell line growth inhibition [GQUAD]
Details: for IC50: curve of first compound; for viability, T/C: stronger effect = lower value
Summary of the method: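 Tumor cells were grown as complex spheroids with HUVEC endothelial cells and mesenchymal stem cells as stroma. G-quadruplex stabilizers were combined with targeted agents over half-log dilutions from near the clinical Cmax, or from 10 microM.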

[1] = second compound 0.0316 µM, first compound 0.0316 µM
[2] = second compound 0.0316 µM, first compound 0.1 µM
[3] = second compound 0.0316 µM, first compound 0.316 µM
[4] = second compound 0.0316 µM, first compound 1 µM
[5] = second compound 0.0316 µM, first compound 3.16 µM
[6] = second compound 0.0316 µM, first compound 10 µM
[7] = second compound 0.1 µM, first compound 0.0316 µM
[8] = second compound 0.1 µM, first compound 0.1 µM
[9] = second compound 0.1 µM, first compound 0.316 µM
[10] = second compound 0.1 µM, first compound 1 µM
[11] = second compound 0.1 µM, first compound 3.16 µM
[12] = second compound 0.1 µM, first compound 10 µM
[13] = second compound 0.316 µM, first compound 0.0316 µM
[14] = second compound 0.316 µM, first compound 0.1 µM
[15] = second compound 0.316 µM, first compound 0.316 µM
[16] = second compound 0.316 µM, first compound 1 µM
[17] = second compound 0.316 µM, first compound 3.16 µM
[18] = second compound 0.316 µM, first compound 10 µM
[19] = second compound 1 µM, first compound 0.0316 µM
[20] = second compound 1 µM, first compound 0.1 µM
[21] = second compound 1 µM, first compound 0.316 µM
[22] = second compound 1 µM, first compound 1 µM
[23] = second compound 1 µM, first compound 3.16 µM
[24] = second compound 1 µM, first compound 10 µM
[25] = second compound 3.16 µM, first compound 0.0316 µM
[26] = second compound 3.16 µM, first compound 0.1 µM
[27] = second compound 3.16 µM, first compound 0.316 µM
[28] = second compound 3.16 µM, first compound 1 µM
[29] = second compound 3.16 µM, first compound 3.16 µM
[30] = second compound 3.16 µM, first compound 10 µM
[31] = second compound 10 µM, first compound 0.0316 µM
[32] = second compound 10 µM, first compound 0.1 µM
[33] = second compound 10 µM, first compound 0.316 µM
[34] = second compound 10 µM, first compound 1 µM
[35] = second compound 10 µM, first compound 3.16 µM
[36] = second compound 10 µM, first compound 10 µM
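Also: spheroids exposed to the compounds for one week.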
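For viability, T/C in this document: percent of tumor spheroid viability relative to DMSO vehicle control wells.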

## C#Cc1c(F)ccc2cc(O)cc(-c3ncc4c(N5CC6CCC(C5)N6)nc(OCC56CCCN5CC(F)C6)nc4c3F)c12 (centres undefined) + Cc1[nH]c2ccc(F)cc2c1-c1nc2c3cccnc3c3ncccc3c2[nH]1
Second compound 0.0316 µM
  IC50: 1.6 µM
Second compound 0.1 µM
  IC50: 1.45 µM
Second compound 0.316 µM
  IC50: 1.45 µM
Second compound 1 µM
  IC50: 0.393 µM
Second compound 3.16 µM
  IC50: < 0.0316 µM
Second compound 10 µM
  IC50: < 0.0316 µM
[1]
  viability, T/C: 109%
[2]
  viability, T/C: 92.7%
[3]
  viability, T/C: 94.5%
[4]
  viability, T/C: 73.4%
[5]
  viability, T/C: 13.6%
[6]
  viability, T/C: 18.1%
[7]
  viability, T/C: 103%
[8]
  viability, T/C: 90.8%
[9]
  viability, T/C: 95%
[10]
  viability, T/C: 67.7%
[11]
  viability, T/C: 8.04%
[12]
  viability, T/C: 17.1%
[13]
  viability, T/C: 88.6%
[14]
  viability, T/C: 87.4%
[15]
  viability, T/C: 82.3%
[16]
  viability, T/C: 67.5%
[17]
  viability, T/C: 10.2%
[18]
  viability, T/C: 16.4%
[19]
  viability, T/C: 52.9%
[20]
  viability, T/C: 52.9%
[21]
  viability, T/C: 54.3%
[22]
  viability, T/C: 35.6%
[23]
  viability, T/C: 1.25%
[24]
  viability, T/C: 1.01%
[25]
  viability, T/C: 2.98%
[26]
  viability, T/C: 2.55%
[27]
  viability, T/C: 4.13%
[28]
  viability, T/C: 1.7%
[29]
  viability, T/C: 0.26%
[30]
  viability, T/C: 0.33%
[31]
  viability, T/C: 1.35%
[32]
  viability, T/C: 1.38%
[33]
  viability, T/C: 1.82%
[34]
  viability, T/C: 1.42%
[35]
  viability, T/C: 0.24%
[36]
  viability, T/C: 0.41%

## CC(=O)O[C@H]1C(=O)[C@@]2(C)[C@H]([C@H](OC(=O)c3ccccc3)[C@]3(O)C[C@H](OC(=O)[C@H](O)[C@@H](NC(=O)c4ccccc4)c4ccccc4)C(C)=C1C3(C)C)[C@]1(OC(C)=O)CO[C@@H]1C[C@@H]2O + Cc1[nH]c2ccc(F)cc2c1-c1nc2c3cccnc3c3ncccc3c2[nH]1
Second compound 0.0316 µM
  IC50: 0.148 µM
Second compound 0.1 µM
  IC50: 0.176 µM
Second compound 0.316 µM
  IC50: 0.24 µM
Second compound 1 µM
  IC50: 0.117 µM
Second compound 3.16 µM
  IC50: < 0.0316 µM
Second compound 10 µM
  IC50: < 0.0316 µM
[1]
  viability, T/C: 100%
[2]
  viability, T/C: 67.2%
[3]
  viability, T/C: 16.9%
[4]
  viability, T/C: 3.76%
[5]
  viability, T/C: 1%
[6]
  viability, T/C: 0.76%
[7]
  viability, T/C: 90.5%
[8]
  viability, T/C: 77.2%
[9]
  viability, T/C: 21.5%
[10]
  viability, T/C: 5.55%
[11]
  viability, T/C: 0.13%
[12]
  viability, T/C: 0.12%
[13]
  viability, T/C: 78.4%
[14]
  viability, T/C: 70.6%
[15]
  viability, T/C: 43.7%
[16]
  viability, T/C: 5.11%
[17]
  viability, T/C: 0.81%
[18]
  viability, T/C: 0.08%
[19]
  viability, T/C: 52.8%
[20]
  viability, T/C: 58.1%
[21]
  viability, T/C: 16.4%
[22]
  viability, T/C: 1.87%
[23]
  viability, T/C: 0.21%
[24]
  viability, T/C: 0.41%
[25]
  viability, T/C: 3.83%
[26]
  viability, T/C: 6.17%
[27]
  viability, T/C: 8.48%
[28]
  viability, T/C: 0.24%
[29]
  viability, T/C: 0.53%
[30]
  viability, T/C: 0.46%
[31]
  viability, T/C: 1.53%
[32]
  viability, T/C: 1.57%
[33]
  viability, T/C: 4.36%
[34]
  viability, T/C: 0.21%
[35]
  viability, T/C: 0.84%
[36]
  viability, T/C: 1.07%

Source: PubChem BioAssay AID2060490 (Molecular Pharmacology Branch, DTP, NCI, 2025)
